Measured values from patent publication US20050049186A1, “Peptides mimicking the biological activity of steroid hormones and their uses” (priority 2000, published 2005).
pIC50: −log10 of the molar value. Peptide text beside a SMILES is read from it.

What was measured:
[1] = biological target: anti-estradiol mAb, clone 15; test: Competitive binding radioimmunoassay with [3H]-estradiol; parameters: species or system mouse; details: RIA, FIG. 1; read-out: IC50, competition with [3H]-estradiol for binding sites of anti-estradiol mAb clone 15
[2] = test system: anti-progesterone, clone 1E11, anti-estriol, clone 9B4, anti-testosterone, clone 5F2; test: ELISA: competition with solid phase hapten protein conjugates for homologous anti-steroidal antibodies; assay type: binding; details: data not shown
Description: (§1) ELISA methodology was used first for the initial screening of the various peptides for antibody binding specificity.

anti-E2, clone 15 = test: ELISA: competition with solid-phase estradiol ovalbumin conjugate for anti-E2 clone 15; assay type: binding, mouse
Description: as §1

[3] = test system: creatine kinase (CK) specific activity in rat tissues; test: Stimulation of creatine kinase specific activity in rat tissues in vivo; details: for Creatine kinase specific activity (Experimental/control), Aorta / Creatine kinase specific activity (Experimental/control), Diapysis / Creatine kinase specific activity (Experimental/control), Epipysis / Creatine kinase specific activity (Experimental/control), LV (left ventricle) / Creatine kinase specific activity (Experimental/control), Uterus: four hours after treatment, peptides and raloxifene 0.5 mg/rat, mean ± S.E.M., n=15
Procedure: The control goups received 0.5 ml saline containing 0.5% ethanol or tris-saline alone. The various organs were assayed for CK activity four hours after treatment.

[4] = biological target: anti-estradiol mAb clone 15; test: Competitive immunoassay: inhibition of binding of labeled E2 (estradiol ovalbumin europium conjugate) to anti-E2 clone 15; parameters: species or system mouse; details: for pIC50: Table 5, estradiol ovalbumin europium conjugate; for inhibition of the binding of estradiol ovalbumin europium conjugate to anti-E2 mAb clone 15 relative to peptides 1 and 2: compared with the linear or cyclic peptides 1 and 2
Description: […]. The linear peptide 1 is 15-amino acid long. We further explored the possibility whether smaller peptides derived from peptide 1 may have antibody binding activity and receptor binding activity. In order to find out the minimum amino acid sequence required in the linear peptide 1 for antibody and receptor binding, several peptides with varying length of from 4 to 14 amino acids long were synthesized, and were first evaluated in terms of binding to anti-estradiol (E2) mAb clone 15. The peptides showing similar or better antibody binding activity than the linear peptide 1 were further evaluated in terms of binding to ERα and β.

ER β = ER β (Homo sapiens, UniProt Q92731); test: Receptor binding assay for estrogen receptor beta; details: for pIC50: read-out: IC50 to ERβ; for recognition of / binding activity to estrogen receptor β: summary of Tables 3 to 5
Chain of ER β (Q92731 whole entry, species assumed): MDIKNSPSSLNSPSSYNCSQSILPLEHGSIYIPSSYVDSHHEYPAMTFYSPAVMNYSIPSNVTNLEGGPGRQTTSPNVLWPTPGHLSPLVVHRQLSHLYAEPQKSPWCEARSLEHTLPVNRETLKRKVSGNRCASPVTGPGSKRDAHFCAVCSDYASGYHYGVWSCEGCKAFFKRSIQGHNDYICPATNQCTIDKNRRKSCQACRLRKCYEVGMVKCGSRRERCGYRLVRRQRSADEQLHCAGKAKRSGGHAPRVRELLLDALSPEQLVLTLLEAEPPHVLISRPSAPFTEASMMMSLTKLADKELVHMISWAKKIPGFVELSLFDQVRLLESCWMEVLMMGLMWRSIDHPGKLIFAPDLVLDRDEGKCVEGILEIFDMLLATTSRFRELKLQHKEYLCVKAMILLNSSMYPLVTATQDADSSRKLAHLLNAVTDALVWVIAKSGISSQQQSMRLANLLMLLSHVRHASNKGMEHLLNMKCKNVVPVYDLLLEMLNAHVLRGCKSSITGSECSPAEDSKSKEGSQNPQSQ

[5] = test system: anti-E2 antibodies, clones 8D9, 11B6 and 2F9; test: ELISA: competition with solid-phase estradiol ovalbumin conjugate for other high affinity anti-E2 antibodies; assay type: binding; details: peptide at 0.5 mM
Description: as §1

[6] = test system: anti-progesterone mAb clone 1E11; test: RIA: competition with [3H]-progesterone for anti-progesterone clone 1E11; parameters: species or system mouse; details: FIG. 4, read-out: IC50, competition with [3H]-progesterone for binding sites of anti-progesterone clone 1E11
Description: In order to confirm the specific binding activity of the peptides 3 and 4 for the anti-progesterone mnAb clone 1E11, a RIA system where the peptides competed with [^3H]-progesterone for the binding sites of clone 1E11 was used. […]

ER α = biological target: T1, ER α (Homo sapiens, UniProt P03372); test: Receptor binding assay for estrogen receptor alpha; details: for recognition of / binding activity to estrogen receptor α: summary of Tables 3 to 5
T1 sequence (P03372 1-595): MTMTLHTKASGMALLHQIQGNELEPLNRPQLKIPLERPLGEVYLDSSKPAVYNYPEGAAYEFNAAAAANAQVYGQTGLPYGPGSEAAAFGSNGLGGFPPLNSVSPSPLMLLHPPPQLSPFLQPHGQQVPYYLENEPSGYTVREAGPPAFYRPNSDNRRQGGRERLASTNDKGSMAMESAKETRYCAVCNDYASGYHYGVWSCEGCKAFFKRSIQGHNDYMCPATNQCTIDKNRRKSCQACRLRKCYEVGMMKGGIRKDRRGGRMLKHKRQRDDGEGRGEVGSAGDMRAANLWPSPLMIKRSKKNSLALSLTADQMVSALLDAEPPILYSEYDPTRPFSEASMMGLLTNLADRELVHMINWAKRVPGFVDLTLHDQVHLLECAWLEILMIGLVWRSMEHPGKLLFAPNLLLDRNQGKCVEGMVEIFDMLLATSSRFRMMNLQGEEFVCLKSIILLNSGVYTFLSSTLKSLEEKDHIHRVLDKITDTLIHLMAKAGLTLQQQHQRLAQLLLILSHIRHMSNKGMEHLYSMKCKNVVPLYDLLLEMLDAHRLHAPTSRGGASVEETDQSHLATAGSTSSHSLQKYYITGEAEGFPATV

[7] = immature female rats, estradiol 5 μg/rat

Structure (SMILES): CC(C)C[C@H](NC(=O)[C@H](C)NC(=O)[C@@H]1CCCN1C(=O)[C@@H](N)CC(C)C)C(=O)N[C@@H](CC(=O)O)C(=O)N1CCC[C@H]1C(=O)N[C@H](C(=O)N[C@@H](CCCCN)C(=O)N[C@@H](CCCNC(=N)N)C(=O)N[C@@H](Cc1c[nH]c2ccccc12)C(=O)N[C@@H](Cc1ccccc1)C(=O)N[C@@H](Cc1ccccc1)C(=O)N[C@@H](CCC(=O)O)C(=O)N[C@H](C(=O)N[C@@H](CCCCN)C(=O)O)[C@@H](C)O)[C@@H](C)O [Peptide 1] (H-LPALDPTKRWFFETK-OH; N-terminus and C-terminus assumed)
- pIC50 [1]: ~5.30
- competing with solid phase hapten protein conjugates for the binding sites of homologous anti-steroidal antibodies [2]: not capable of competing
- inhibition of the binding of immobilized estradiol ovalbumin conjugate to anti-E2, clone 15 (anti-E2, clone 15; ELISA, peptide at a concentration of 0.5 mM): 36%
- recognition of anti-E2 mAb clone 15 (anti-E2, clone 15; initial binding studies): recognized
- stimulation of CK activity in rat tissues ([3]; higher concentration 2.5 mg/rat, data not shown): stimulated the CK activity in the epiphysis and aorta as well
- increase in the specific activity of creatine kinase (CK) in rat tissues ([3]; immature female rats, 4 hours, estradiol 5 μg/rat, peptides 0.5 mg/rat): increase in CK activity only in the uterus and left ventricle
- Creatine kinase specific activity (Experimental/control), Aorta [3, 7]: 1.35 ± 0.23
- Creatine kinase specific activity (Experimental/control), Diapysis [3, 7]: 1.09 ± 0.17
- Creatine kinase specific activity (Experimental/control), Epipysis [3, 7]: 1.10 ± 0.09
- Creatine kinase specific activity (Experimental/control), LV (left ventricle) [3, 7]: 1.41 ± 03
- Creatine kinase specific activity (Experimental/control), Uterus [3, 7]: 1.6 ± 0.27
- pIC50 [4]: 6.00
- binding to ER β (ER β; FIG. 3): none
- IC50 to ERβ (ER β; Table 5): none
- inhibition of the binding of immobilized estradiol ovalbumin conjugate to other high affinity anti-E2 antibodies [5]: not

Structure (SMILES): CC[C@H](C)[C@H](NC(=O)[C@@H](NC(=O)[C@H](CO)NC(=O)[C@H](CC(C)C)NC(=O)[C@H](Cc1ccccc1)NC(=O)[C@H](CCC(N)=O)NC(=O)[C@H](C)NC(=O)[C@H](CCC(N)=O)NC(=O)[C@H](CC(=O)O)NC(=O)[C@H](Cc1c[nH]c2ccccc12)NC(=O)[C@@H]1CCCN1C(=O)[C@H](Cc1c[nH]cn1)NC(=O)[C@H](CC(N)=O)NC(=O)[C@@H](N)C(C)C)[C@@H](C)O)C(=O)O [Peptide 3] (H-VNHPWDQAQFLSTI-OH)
- pIC50 [6]: ~4.00

Structure (SMILES): C[C@]12CC[C@@H]3c4ccc(O)cc4CC[C@H]3[C@@H]1CC[C@@H]2O [Estradiol, estradiol]
- Creatine kinase specific activity (Experimental/control), Aorta [3, 7]: 2.0 ± 0.18
- Creatine kinase specific activity (Experimental/control), Diapysis [3, 7]: 1.87 ± 0.1
- Creatine kinase specific activity (Experimental/control), Epipysis [3, 7]: 1.37 ± 0.07
- Creatine kinase specific activity (Experimental/control), Uterus [3, 7]: 1.37 ± 0.07

Structure (SMILES): O=C(c1ccc(OCCN2CCCCC2)cc1)c1c(-c2ccc(O)cc2)sc2cc(O)ccc12 [Raloxifene, raloxifene]
- Creatine kinase specific activity (Experimental/control), Aorta [3, 7]: 1.63 ± 0.04
- Creatine kinase specific activity (Experimental/control), Diapysis [3, 7]: 1.75 ± 0.13
- Creatine kinase specific activity (Experimental/control), Epipysis [3, 7]: 1.41 ± 0.05
- Creatine kinase specific activity (Experimental/control), LV (left ventricle) [3, 7]: 1.34 ± 0.11
- Creatine kinase specific activity (Experimental/control), Uterus [3, 7]: 0.99 ± 0.17
- blocking of the increase in CK activity caused by estradiol or peptides 1 and 2 ([3]; rats treated with combination with raloxifene): blocked in all the tissues with the exception of the epiphysis

Structure (SMILES): CC(C)[C@H](NC(=O)[C@H](Cc1c[nH]cn1)NC(=O)[C@@H]1CSSC[C@H](NC(=O)[C@H](Cc2ccccc2)NC(=O)[C@@H]2CCCN2C(=O)[C@H](CC(N)=O)NC(=O)[C@@H](N)CO)C(=O)N[C@@H](CCC(N)=O)C(=O)N[C@@H]([C@@H](C)O)C(=O)N[C@@H](CC(=O)O)C(=O)NCC(=O)N[C@@H](CC(=O)O)C(=O)N1)C(=O)N[C@@H](Cc1c[nH]cn1)C(=O)N[C@H](C(=O)O)[C@@H](C)O [Peptide 4] (HELM PEPTIDE1{S.N.P.F.C.Q.T.D.G.D.C.H.V.H.T}$PEPTIDE1,PEPTIDE1,5:R3-11:R3$$$V2.0; N-terminus and C-terminus assumed; bridges inferred)
- pIC50 [6]: ~5.30

Structure (SMILES): CC(=O)[C@H]1CC[C@H]2[C@@H]3CCC4=CC(=O)CC[C@]4(C)[C@H]3CC[C@]12C [Progesterone, progesterone, reference compound]
- pIC50 [6]: > 9.00

Structure (SMILES): C[C@H](NC(=O)[C@@H](N)CCCCN)C(=O)N[C@@H](Cc1c[nH]c2ccccc12)C(=O)N[C@@H](Cc1ccccc1)C(=O)N[C@@H](Cc1ccccc1)C(=O)N[C@@H](CCC(=O)O)C(=O)O [Peptide A-44, KAWFFE] (H-KAWFFE-OH)
- pIC50 [4]: 7.40
- inhibition of the binding of estradiol ovalbumin europium conjugate to anti-E2 mAb clone 15 relative to peptides 1 and 2 [4]: one and half order of magnitude better
- inhibition of binding of estradiol ovalbumin europium conjugate to anti-estradiol mAb clone 15 ([4]; text summary of Table 4): showed inhibition
- pIC50 (ER α; Table 5, read-out: IC50 to ER α): 3.60
- recognition of / binding activity to estrogen receptor α (ER α): recognized
- pIC50 (ER β; Table 5): 3.60
- recognition of / binding activity to estrogen receptor β (ER β): recognized

Structure (SMILES): NCCCC[C@H](N)C(=O)N1CCC[C@H]1C(=O)N[C@@H](Cc1c[nH]c2ccccc12)C(=O)N[C@@H](Cc1ccccc1)C(=O)N[C@@H](Cc1ccccc1)C(=O)N[C@@H](CCC(=O)O)C(=O)O [Peptide 21, KPWFFE] (H-KPWFFE-OH)
- pIC50 [4]: 7.35
- inhibition of the binding of estradiol ovalbumin europium conjugate to anti-E2 mAb clone 15 relative to peptides 1 and 2 [4]: one and half order of magnitude better
- recognition of / binding activity to estrogen receptor α (ER α): recognized
- pIC50 (ER β; Table 5): < 3.30
- recognition of / binding activity to estrogen receptor β (ER β): recognized
